According to patent US20210346315A1, “COMPOSITION FOR INHIBITION OR TREATMENT OF BRAIN TUMORS OR SYMPTOMS ATTRIBUTABLE THERETO” (ENEOS Corporation, priority 2018, published 2021):

Tests used:
[1] = tested on: mouse-derived glioma cell line GL261; test: Cell proliferative capacity / cell viability of mouse-derived glioma cell line GL261 (CCK-8); format: cell-based; settings: for average value of cell viability, concentration dependence: 0.1 to 10 μM; for cell viability (proliferation) vs the control group: GL261, after 96 hours, 0.1, 1.0, 5 or 10 μM
Protocol: (§1) As the glioma cell lines, the mouse-derived glioma cell line GL261 (transferred from Graduate School of Health Sciences, Gunma University) and the human-derived glioma cell line U251MG (DS Pharma Biomedical Co., Ltd.) were used. First, the glioma cell lines were seeded in a 96-well plate (FALCON) at 2,000 cells/well. Using Dulbecco's modified Eagle's medium (DMEM) (Nacalai Tesque, Inc.) containing 10% fetal bovine serum (FBS) (Valeant Pharmaceuticals International, Inc.), 100 U/mL penicillin, and 100 μg/mL streptomycin (Meiji Seika Pharma Co., Ltd.), seeded cells were cultured for 24 hours at 37° C. under 5% CO2. Then, the medium was replaced with DMEM containing 10% FBS so that the concentration was 90 μL/well. After the medium replacement, a test solution was further added according to each test group. Specifically, in the control group, 10 μL of PBS containing 0.1% DMSO (Nacalai Tesque, Inc.) was added (n=6). In the temozolomide group, temozolomide (Tokyo Chemical Industry Co., Ltd.) was dissolved in PBS containing 0.1% DMSO to obtain a temozolomide solution. Then, 10 μL of the temozolomide solution was added so that the final concentration of temozolomide was 300 μM (n=6). In the astaxanthin and adonixanthin groups, astaxanthin or adonixanthin was dissolved in PBS containing 0.1% DMSO to obtain an astaxanthin or adonixanthin solution. Then, 10 μL each of the astaxanthin or adonixanthin solution was added so that the final concentration of astaxanthin or adonixanthin was 0.1, 1.0, 5, or 10 μM (n=6). At 72 hours and 96 hours after addition of each test solution, the viable cell count of GL261 and U251MG was measured using cell counting kit-8 (CCK-8) (DOJINDO LABORATORIES). Specifically, using a microplate reader (Varioscan Flash 2.4, Thermo Fisher Scientific K.K.) at the time of addition and 2 hours after addition of CCK-8, the absorbance was measured at 450 nm, and the viable cell count was measured using the absorbance at 650 nm as a reference. For example, in the case of 72-hour treatment, CCK-8 was added 70 hours after addition of the test solution, and the absorbance was measured. The absorbance was measured again 2 hours after addition of CCK-8. The value obtained by subtracting the absorbance immediately after addition of CCK-8 as the background from the absorbance 2 hours after addition of CCK-8 was used as data. In the same manner as in Test Example 1, effects of adonirubin or zeaxanthin on the cell proliferative capacity after 72 hours of a human- or mouse-derived glioma cell line were investigated. As adonirubin, the adonirubin obtained in Preparation Example 1 was used, and as zeaxanthin, Zeaxanthin (manufacturer code ASB-00026504, ChromaDex Corporation) was used. Specifically, the glioma cell lines were seeded in a 96-well plate at 2,000 cells/well. Using DMEM containing 10% FBS, 100 U/mL penicillin, and 100 μg/mL streptomycin, seeded cells were cultured for 24 hours at 37° C. under 5% CO2. Then, the medium was replaced with DMEM containing 10% FBS so that the concentration was 90 μL/well. After the medium replacement, a test solution was further added according to each test group. Specifically, in the control group, 10 μL of PBS containing 0.1% DMSO (Nacalai Tesque, Inc.) was added (n=6). In the temozolomide group, temozolomide was dissolved in PBS containing 0.1% DMSO to obtain a temozolomide solution. Then, 10 μL of the temozolomide solution was added so that the final concentration of temozolomide was 300 μM (n=6). In the adonirubin and zeaxanthin groups, adonirubin or zeaxanthin was dissolved in PBS containing 0.1% DMSO to obtain an adonirubin or zeaxanthin solution. Then, 10 μL each of the adonirubin or zeaxanthin solution was added so that the final concentration of adonirubin or zeaxanthin was 0.1, 1.0, 5, or 10 μM (n=6). At 72 hours after addition of each test solution, the cell proliferative capacity of GL261 and U251MG was evaluated using CCK-8 in the same manner as in Test Example 1.

[2] = tested on: human-derived glioma cell line U251MG; test: Cell proliferative capacity / cell viability of human-derived glioma cell line U251MG (CCK-8); format: cell-based; settings: for cell viability (proliferation) vs the control group: after 96 hours, 0.1, 1.0, 5 or 10 μM
Protocol: as §1

[3] = Intracerebral distribution of astaxanthin or adonixanthin in cynomolgus monkey (HPLC of brain organs); format: in vivo; settings: 50 mg/kg body weight once daily for 10 days into the stomach, FIG. 5
Protocol: Each of the astaxanthin and the adonixanthin obtained in Preparation Example 1 was weighed, followed by suspension by adding olive oil (product number 150-00276, manufactured by Wako Pure Chemical Industries, Ltd.) to prepare so that each concentration was 10 mg/mL, thus obtaining an astaxanthin dosing solution and an adonixanthin dosing solution. Each dosing solution was prepared at the time of use, and stored on ice and protected from light until administration.
As experimental animals, cynomolgus monkeys were used. […] The dose in each administration was calculated based on the latest body weight at each administration time point (body weight was measured using an electric balance (HP-40K or GP-40K, both of which were manufactured by A&D Company, Limited) on each of the day of initiation of acclimation, the day of end of acclimation, the day of initiation of administration, and before administration on the day 8 of administration). […]
Each of the concentration of adonixanthin in each organ collected from the adonixanthin-administering monkey (concentration relative to the weight of each organ) and the concentration of astaxanthin in each organ collected from the astaxanthin-administering monkey (concentration relative to the weight of each organ) was measured. […]

[4] = GL261, after 72 hours, all concentrations (0.1, 1.0, 5 or 10 μM)
[5] = after 72 hours, 0.1, 1.0, 5 or 10 μM
[6] = GL261, after 72 hours, 10 μM group

| SMILES | proliferation inhibition compared with the zeaxanthin group ([1]; GL261, after 72 hours) | cell proliferative capacity vs the control group [1, 4] | cell proliferative capacity vs the control group [2, 5] | concentration in the brain compared with astaxanthin [3] | concentration in each organ of the brain (transfer into the brain and retention) ([3]; organs collected after blood sampling 4 hours after last administration) | average value of cell viability, concentration dependence ([1]; GL261, after 72 hours) | cell viability (proliferation) vs the control group ([1]; FIG. 2) | proliferation inhibition compared with the astaxanthin group ([1]; GL261, after 96 hours, FIG. 2) | cell proliferative capacity vs the control group ([2]; after 72 hours, 1, 5, and 10 μM groups) | cell viability (proliferation) vs the control group ([2]; FIG. 1) | proliferation inhibition compared with the astaxanthin group ([2]; after 96 hours, FIG. 1) | cell proliferative capacity vs the control group [1, 6] | proliferation inhibition compared with the adonirubin group ([2]; after 72 hours) |
| --- | --- | --- | --- | --- | --- | --- | --- | --- | --- | --- | --- | --- | --- |
| CC1=C(/C=C/C(C)=C/C=C/C(C)=C/C=C/C=C(C)/C=C/C=C(C)/C=C/C2=C(C)C(=O)C(O)CC2(C)C)C(C)(C)CCC1=O (stereo not drawn) [adonirubin, 3-hydroxy-β,β-carotene-4,4′-dione] | inhibited at a higher level | significantly inhibited at any concentration | tends to be inhibited at any concentration | – | – | – | – | – | – | – | – | – | – |
| CC1=C(/C=C/C(C)=C/C=C/C(C)=C/C=C/C=C(C)/C=C/C=C(C)/C=C/C2=C(C)C(=O)C(O)CC2(C)C)C(C)(C)CC(O)C1 (stereo not drawn) [adonixanthin, 3,3′-dihydroxy-β,β-carotene-4-one] | – | significantly inhibited | tends to be concentration-dependently inhibited | transferred into the brain at a higher concentration | transferred into the brain at a high concentration | tends to concentration-dependently decrease | significantly inhibited at any concentration | inhibited at a higher level | significantly inhibited | significantly inhibited at any concentration | inhibited at a higher level | – | – |
| CC1=C(/C=C/C(C)=C/C=C/C(C)=C/C=C/C=C(C)/C=C/C=C(C)/C=C/C2=C(C)C(=O)C(O)CC2(C)C)C(C)(C)CC(O)C1=O (stereo not drawn) [astaxanthin, 3,3′-dihydroxy-β,β-carotene-4,4′-dione] | – | – | tends to be concentration-dependently inhibited | – | – | tends to concentration-dependently decrease | significantly inhibited at any concentration | – | – | significantly inhibited at any concentration | – | significantly inhibited | – |
| CC1=C(/C=C/C(C)=C/C=C/C(C)=C/C=C/C=C(C)/C=C/C=C(C)/C=C/C2=C(C)C[C@@H](O)CC2(C)C)C(C)(C)C[C@H](O)C1 [zeaxanthin, β,β-carotene-3,3′-diol] | – | tends to be inhibited at any concentration | significantly inhibited at any concentration | – | – | – | – | – | – | – | – | significantly inhibited | inhibited at a higher level |
